Laboratory results reported in ChEMBL document CHEMBL1201862, “PubChem BioAssay data set” (2004).
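96-well plates; 48 h exposure; 5 concentrations. Endpoints by linear interpolation between flanking doses. Not reached: highest tested concentration assigned. GI50 is the concentration that inhibits growth by half.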 Active and inactive are the calls of the source. Rule as the data show it: active = GI50 up to about 1.1 µM and inactive = higher.

Assays:
Assay in all cases: NCI anticancer screen, dose series, 48 h
SK-MEL-28 = tested on: SK-MEL-28
KM-20L2 = tested on: KM-20L2
UACC-62 = tested on: UACC-62
M14 = tested on: M14
RPMI-8226 = tested on: RPMI-8226
SF-268 = tested on: SF-268
RXF 393 = tested on: RXF 393
K562 = tested on: K562
DMS-273 = tested on: DMS-273
HOP-18 = tested on: HOP-18
M19-MEL = tested on: M19-MEL
CAKI-1 = tested on: CAKI-1
LOX IMVI = tested on: LOX IMVI
SNB-19 = tested on: SNB-19
HCT-116 = tested on: HCT-116
A498 = tested on: A498
NCI-H522 = tested on: NCI-H522
SNB-75 = tested on: SNB-75
SF-295 = tested on: SF-295
SR = tested on: SR
MOLT-4 = tested on: MOLT-4
SK-OV-3 = tested on: SK-OV-3
NCI-H23 = tested on: NCI-H23
SK-MEL-5 = tested on: SK-MEL-5
OVCAR-8 = tested on: OVCAR-8
A549 = tested on: A549
OVCAR-3 = tested on: OVCAR-3
SK-MEL-2 = tested on: SK-MEL-2
HCC 2998 = tested on: HCC 2998
Malme-3M = tested on: Malme-3M
SN12C = tested on: SN12C
HCT-15 = tested on: HCT-15
DLD-1 = tested on: DLD-1
UACC-257 = tested on: UACC-257
SNB-78 = tested on: SNB-78
KM12 = tested on: KM12
XF498 = tested on: XF498
786-0 = tested on: 786-0
EKVX = tested on: EKVX
UO-31 = tested on: UO-31
NCI-H226 = tested on: NCI-H226
HOP-92 = tested on: HOP-92
U-251 = tested on: U-251
NCI-H460 = tested on: NCI-H460
LXFL 529 = tested on: LXFL 529
HOP-62 = tested on: HOP-62
COLO 205 = tested on: COLO 205
HL-60 = tested on: HL-60
OVCAR-4 = tested on: OVCAR-4
OVCAR-5 = tested on: OVCAR-5
IGROV-1 = tested on: IGROV-1
TK-10 = tested on: TK-10
ACHN = tested on: ACHN
SW-620 = tested on: SW-620
SF-539 = tested on: SF-539
CCRF-CEM = tested on: CCRF-CEM
HT-29 = tested on: HT-29
DMS-114 = tested on: DMS-114

Measured: GI50

CC1=NN(c2ccccc2)C(=O)C12[C@H](c1ccccc1)C2(C#N)C#N (stereo not given in full)
inactive: SK-MEL-28 3.48 µM | KM-20L2 11.8 µM | UACC-62 3.44 µM | M14 1.44 µM | RPMI-8226 1.91 µM | SF-268 7.26 µM | RXF 393 5.19 µM | K562 1.85 µM | DMS-273 2.67 µM | HOP-18 7.48 µM | M19-MEL 2.51 µM | CAKI-1 6.41 µM | LOX IMVI 1.78 µM | SNB-19 15.8 µM | HCT-116 3.21 µM | A498 16.9 µM | NCI-H522 2.88 µM | SNB-75 6.11 µM | SF-295 12.9 µM | SR 1.91 µM | SK-OV-3 18.6 µM | NCI-H23 2.85 µM | SK-MEL-5 4.48 µM | OVCAR-8 2.84 µM | A549 16.3 µM | OVCAR-3 7.03 µM | SK-MEL-2 6.43 µM | HCC 2998 18.5 µM | Malme-3M 4.68 µM | SN12C 3.95 µM | DLD-1 2 µM | UACC-257 5.96 µM | SNB-78 13.8 µM | KM12 9.64 µM | XF498 3.4 µM | 786-0 2.41 µM | EKVX 18.3 µM | UO-31 14.7 µM | NCI-H226 12.8 µM | HOP-92 2.64 µM | U-251 15.4 µM | NCI-H460 17.5 µM | LXFL 529 1.96 µM | HOP-62 17.3 µM | COLO 205 2.29 µM | HL-60 2.55 µM | OVCAR-4 5.46 µM | OVCAR-5 11.5 µM | IGROV-1 14.2 µM | TK-10 12.5 µM | ACHN 8.36 µM | SW-620 1.87 µM | SF-539 14.6 µM | HT-29 4.59 µM
active: MOLT-4 0.679 µM | CCRF-CEM 0.457 µM
2.49 µM: HCT-15

COc1cc(/C=C\c2cccnc2)cc(OC)c1OC
39.4 µM: HCT-15
inactive: SK-MEL-28 69.3 µM | KM-20L2 33.8 µM | UACC-62 46.3 µM | M14 26.8 µM | RPMI-8226 19.6 µM | SF-268 77.1 µM | RXF 393 22.6 µM | K562 24.5 µM | DMS-273 33.1 µM | HOP-18 > 100 µM | M19-MEL 76.7 µM | CAKI-1 44.5 µM | LOX IMVI 26.2 µM | SNB-19 83.9 µM | HCT-116 58.2 µM | NCI-H522 25.3 µM | SNB-75 58.3 µM | SF-295 36.6 µM | MOLT-4 9.84 µM | NCI-H23 66.8 µM | SK-MEL-5 18.9 µM | OVCAR-8 63.2 µM | A549 42.1 µM | OVCAR-3 54 µM | Malme-3M 64.9 µM | SN12C 42.6 µM | DLD-1 72.1 µM | UACC-257 68.4 µM | SNB-78 > 100 µM | KM12 36.1 µM | XF498 48.9 µM | 786-0 67.9 µM | EKVX 38.1 µM | UO-31 27.9 µM | NCI-H226 > 100 µM | HOP-92 26 µM | U-251 33 µM | NCI-H460 40.8 µM | LXFL 529 48.1 µM | HOP-62 37.8 µM | COLO 205 29.3 µM | HL-60 18.9 µM | DMS-114 46.8 µM | OVCAR-4 > 100 µM | OVCAR-5 > 100 µM | IGROV-1 57.9 µM | TK-10 > 100 µM | ACHN > 100 µM | SW-620 38.3 µM | SF-539 36.6 µM | CCRF-CEM 25.7 µM | HT-29 40.7 µM
